From patent US20160279110A1, “COMPOSITIONS AND METHODS FOR TREATING CANCER” (UNIVERSITY OF ROCHESTER, priority 2015, published 2016)

Columns and labels:
[1] = tested on: UPF1; assay: Western blot of UPF1 CP generation in HEK293T cells; assay type: cell-based, human; details: 300 μg/mL CHX or 1 μM staurosporine
Description: (§1) FIG. 10b is essentially as in a, but using lysates of HEK293T cells exposed to 1 μM staurosporine. FIG. 10c is essentially as in a, but using lysates of human Daudi B lymphoblasts exposed to 40 ng/mL TNF-α or 2 μg/mL doxorubicin. FIG. 10d is essentially as in a, but using lysates of human Jurkat T cells exposed to 1 μM staurosporine. FIG. 10e is essentially as in a, but using lysates of canine MDCK cells exposed to 2 μM staurosporine. FIG. 10f is essentially as in a, but using lysates of bovine MDBK cells exposed to 2 μM staurosporine. FIG. 10g is essentially as in a, but using lysates of Chinese Hamster Ovary (CHO) cells exposed to 2 μM staurosporine. FIG. 10h is essentially as in a, but using lysates of African green monkey COS-7 cells exposed to 2 μM staurosporine or 2 μg/mL doxorubicin. At least two apoptotic inducers were used for each cell line, and at least two cell lines were tested with each apoptotic inducer.
(§2) Cells were lysed, and protein was isolated using hypotonic buffer that consists of 10 mM Tris-C1, pH 7.4, 10 mM NaCl, 2 mM EDTA, 0.5% Triton X-100, 2 mM benzamidine, 1 mM PMSF, NEM (50 μg/mL), 1× phosphatase inhibitor cocktail (Roche), and 1× protease inhibitor cocktail (Roche; Basel, Switzerland). […] Immunoreactivity was assessed using SuperSignal West Pico or Femto (Pierce Biotechnology; Waltham, Mass.). […]

[2] = tested on: UPF1; assay: Western blot of UPF1 CP generation in HeLa cells; assay type: cell-based, human
Description: […] At least two apoptotic inducers were used for each cell line, and at least two cell lines were tested with each apoptotic inducer.
UPF1 CP may result from cleavage of endogenous UPF1 or the transfected construct, but the use of anti-FLAG allows unambiguous assignment of UPF1-FLAG CP as derived from MYC-UPF1-FLAG. α, anti; h, hour(s). […] To serve as molecular weight standards for UPF1 CP, lysates of MCF7 cells transiently expressing a UPF1-FLAG protein encompassing the residues specified were also analyzed. […] The D37 cleavage site encompassing P4-P1 residues is boxed. […] Immunoblots are representative of at least 2 independent experiments.
as §2
Inventories of in vivo apoptotic cleavage events indicate that cleavage specificity in living cells is determined chiefly by an aspartic acid residue at the P1 position; P4-P2 residues contribute far less to specificity in cells than is indicated by in vitro-derived peptide-based substrate profiles. […]

[3] = tested on: UPF1; assay: Western blot of UPF1 CP generation in C2C12 myoblasts; assay type: cell-based, mouse; details: C2C12, CHX 100 or 300 μg/ml, ETP 100 μM 5 h pulse
Description: CHX concentrations were 100 or 300 μg ml^−1, and a 5 h pulse of ETP was used at 100 μM. At least two apoptotic inducers were used for each cell line, and at least two cell lines were tested with each apoptotic inducer.
(§3) Cells were lysed, and protein was isolated using hypotonic buffer that consists of 10 mM Tris-C1, pH 7.4, 10 mM NaCl, 2 mM EDTA, 0.5% Triton X-100, 2 mM benzamidine, 1 mM PMSF, NEM (50 μg/mL), 1× phosphatase inhibitor cocktail (Roche), and 1× protease inhibitor cocktail (Roche; Basel, Switzerland). After 10 minutes of incubation at 4° C., NaCl was added to 150 mM, and lysates were cleared by centrifugation. […] Immunoreactivity was assessed using SuperSignal West Pico or Femto (Pierce Biotechnology; Waltham, Mass.).

[4] = tested on: UPF1; assay: Western blot of UPF1 CP generation in Jurkat T cells; assay type: cell-based, human; details: 1 μM staurosporine
Description: as §1, §2

[5] = tested on: UPF1; assay: Western blot of UPF1 CP generation in MDCK cells; assay type: cell-based, canine; details: 2 μM staurosporine
Description: as §1
(§4) Cells were lysed, and protein was isolated using hypotonic buffer that consists of 10 mM Tris-C1, pH 7.4, 10 mM NaCl, 2 mM EDTA, 0.5% Triton X-100, 2 mM benzamidine, 1 mM PMSF, NEM (50 μg/mL), 1× phosphatase inhibitor cocktail (Roche), and 1× protease inhibitor cocktail (Roche; Basel, Switzerland). […] Immunoreactivity was assessed using SuperSignal West Pico or Femto (Pierce Biotechnology; Waltham, Mass.).

[6] = tested on: UPF1; assay: Western blot of UPF1 CP generation in MDBK cells; assay type: cell-based, bovine; details: 2 μM staurosporine
Description: as §1, §4

[7] = tested on: UPF1; assay: Western blot of UPF1 CP generation in COS-7 cells; assay type: cell-based, African green monkey; details: COS-7, 2 μM staurosporine or 2 μg/mL doxorubicin
Description: as §1, §4

[8] = tested on: UPF1; assay: Western blot of UPF1 CP generation in CHO cells; assay type: cell-based, Chinese hamster; details: 2 μM staurosporine
Description: as §1, §4

[9] = tested on: UPF1; assay: Western blot of UPF1 CP generation in Daudi B lymphoblasts; assay type: cell-based, human; details: 40 ng/mL TNF-α or 2 μg/mL doxorubicin
Description: as §1, §2

[10] = tested on: caspases; assay: Caspase inhibitor pre-incubation before CHX, UPF1 CP western blot in HEK293T cells; assay type: cell-based, human; details: inhibitor preincubated 4 h, then CHX 300 μg/ml
Description: FIG. 3b is a diagram of N-terminally FLAG-tagged human UPF1, showing its reactivity with anti(α)-UPF1(1-416). CH, cysteine-t histidine-rich region. […] Blots are representative of two independent experiments.
as §3, with “Mass.). […]” for “Mass.).”

[11] = biological target: T1, MYC-UPF1-FLAG WT, Q92900
T1 chain: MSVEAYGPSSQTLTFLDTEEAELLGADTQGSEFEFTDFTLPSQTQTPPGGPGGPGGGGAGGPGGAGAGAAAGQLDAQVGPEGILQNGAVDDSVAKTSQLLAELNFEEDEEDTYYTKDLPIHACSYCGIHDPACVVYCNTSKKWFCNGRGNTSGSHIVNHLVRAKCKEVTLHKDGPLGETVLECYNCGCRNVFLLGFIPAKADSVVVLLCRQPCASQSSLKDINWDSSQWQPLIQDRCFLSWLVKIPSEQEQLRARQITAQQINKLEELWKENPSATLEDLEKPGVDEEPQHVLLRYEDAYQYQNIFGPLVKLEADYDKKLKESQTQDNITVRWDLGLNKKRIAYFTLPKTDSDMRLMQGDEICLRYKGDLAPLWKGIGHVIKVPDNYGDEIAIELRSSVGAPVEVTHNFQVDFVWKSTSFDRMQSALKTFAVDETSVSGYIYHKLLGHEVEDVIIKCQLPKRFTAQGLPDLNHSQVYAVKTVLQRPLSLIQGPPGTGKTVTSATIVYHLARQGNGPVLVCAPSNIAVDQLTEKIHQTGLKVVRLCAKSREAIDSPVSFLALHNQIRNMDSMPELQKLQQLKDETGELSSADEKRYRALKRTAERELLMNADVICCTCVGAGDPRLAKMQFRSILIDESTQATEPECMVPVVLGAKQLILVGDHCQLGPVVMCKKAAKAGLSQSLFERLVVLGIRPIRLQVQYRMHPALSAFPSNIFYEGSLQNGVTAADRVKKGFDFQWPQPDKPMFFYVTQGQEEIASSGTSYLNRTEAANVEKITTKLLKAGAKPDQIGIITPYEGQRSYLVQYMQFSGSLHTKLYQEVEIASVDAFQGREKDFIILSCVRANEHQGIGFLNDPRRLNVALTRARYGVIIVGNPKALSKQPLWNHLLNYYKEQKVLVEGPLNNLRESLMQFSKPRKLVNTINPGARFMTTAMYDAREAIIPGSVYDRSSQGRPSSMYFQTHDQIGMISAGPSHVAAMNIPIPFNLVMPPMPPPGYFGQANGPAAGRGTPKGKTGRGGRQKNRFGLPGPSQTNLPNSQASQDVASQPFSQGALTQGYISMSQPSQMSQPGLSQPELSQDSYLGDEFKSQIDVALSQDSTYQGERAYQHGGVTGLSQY

Molecule: C[C@@H]1C[C@@H]([C@H](O)CC2CC(=O)NC(=O)C2)C(=O)[C@@H](C)C1 [CHX, cycloheximide]
- UPF1 CP generation [1]: Generation of the UPF1 CP prior to full CASP9 and CASP3 cleavage
- UPF1 CP level relative to uncleaved UPF1 ([2]; HeLa expressing UPF1 WT, D27N or D75N, 300 μg/mL CHX, anti-FLAG immunoblot): about one-third the level of uncleaved UPF1
- UPF1 CP generation [3]: generated a UPF1 CP prior to maximal CASP3 cleavage

Molecule: COc1cc([C@@H]2c3cc4c(cc3[C@@H](O[C@@H]3O[C@@H]5CO[C@@H](C)O[C@H]5[C@H](O)[C@H]3O)[C@H]3COC(=O)[C@H]23)OCO4)cc(OC)c1O [ETP, etoposide]
- UPF1 CP generation ([2]; HeLa, ETP 44 μM 6 h): induced generation of a UPF1 CP before full induction of cleaved initiator caspase 9 (CASP9) and cleaved executioner CASP3
- UPF1 CP generation [3]: generated a UPF1 CP prior to maximal CASP3 cleavage

Molecule: CN[C@@H]1C[C@H]2O[C@@](C)([C@@H]1OC)n1c3ccccc3c3c4c(c5c6ccccc6n2c5c31)C(=O)NC4 [staurosporine]
- UPF1 CP generation [4]: yielded a UPF1 CP prior to maximal cleavage of CASP3 or PARP
- UPF1 CP generation [5]: led to UPF1 CP production
- UPF1 CP generation [1]: yielded two UPF1 CPs, prior to full cleavage of CASP9 and CASP3
- UPF1 CP generation [6]: led to UPF1 CP production
- UPF1 CP generation [7]: yielded a UPF1 CP
- UPF1 CP generation [8]: led to UPF1 CP production

Molecule: TNF-α
- UPF1 CP generation [9]: led to generation of the UPF1 CP prior to maximal PARP cleavage

Molecule: Z-DEVD-fmk
- level of UPF1 CP after caspase inhibitor [10]: nearly undetectable

Molecule: Z-VAD-fmk
- level of UPF1 CP after caspase inhibitor [10]: nearly undetectable

B1: Active recombinant Caspase 7 (protein)
chain: AKPDRSSFVPSLFSKKKKNVTMRSIKTTRDRVPTYQYNMNFEKLGKCIIINNKNFDKVTGMGVRNGTDKDAEALFKCFRSLGFDVIVYNDCSCAKMQDLLKKASEEDHTNAACFACILLSHGEENVIYGKDGVTPIKDLTAHFRGDRCKTLLEKPKLFFIQACRGTELDDGIQADSGPINDTDANPRYKIPVEADFLFAYSTVPGYYSWRSPGRGSWFVQALCSILEEHGKDLEIMQILTRVNDRVARHFESQSDDPHFHEKKQIPCVVSMLTKELYFSQ
- in vitro caspase cleavage, western blot [11]: CASP3 and CASP7 cleaved MYC-UPF1-FLAG WT

B2: Active recombinant Caspase 3 (protein)
chain: SGISLDNSYKMDYPEMGLCIIINNKNFHKSTGMTSRSGTDVDAANLRETFRNLKYEVRNKNDLTREEIVELMRDVSKEDHSKRSSFVCVLLSHGEEGIIFGTNGPVDLKKITNFFRGDRCRSLTGKPKLFIIQACRGTELDCGIETDSGVDDDMACHKIPVEADFLYAYSTAPGYYSWRNSKDGSWFIQSLCAMLKQYADKLEFMHILTRVNRKVATEFESFSFDATFHAKKQIPCIVSMLTKELYFYH
- in vitro caspase cleavage, western blot [11]: CASP3 and CASP7 cleaved MYC-UPF1-FLAG WT
